Laboratory results: the NIST ThermoML archive (doi:10.1016/j.jct.2006.06.005)

Assay: xn = mol fraction of the nth substance listed
Settings: 101 kPa, Liquid

CN1CCCC1=O [N-methylpyrrolidone] + C1CCCCC1
Settings | mass density, 303.15 K [kg/m3] | mass density, 313.15 K [kg/m3] | mass density, 323.15 K [kg/m3] | mass density, 333.15 K [kg/m3] | viscosity, 303.15 K [mPa·s] | viscosity, 313.15 K [mPa·s] | viscosity, 323.15 K [mPa·s] | viscosity, 333.15 K [mPa·s]
x2 = 0 | 1023.47 | 1014.55 | 1005.66 | 996.71 | 1.554 | 1.332 | 1.16 | 1.022
x2 = 0.1157 | 989.9 | 980.96 | 972.02 | 963.06 | 1.394 | 1.206 | 1.056 | 0.931
x2 = 0.2275 | 958.38 | 949.41 | 940.41 | 931.37 | 1.28 | 1.106 | 0.965 | 0.854
x2 = 0.3355 | 928.85 | 919.78 | 910.71 | 901.57 | 1.194 | 1.032 | 0.9 | 0.791
x2 = 0.4398 | 901.35 | 892.21 | 883.02 | 873.78 | 1.132 | 0.973 | 0.843 | 0.739
x2 = 0.5409 | 875.71 | 866.43 | 857.14 | 847.77 | 1.073 | 0.92 | 0.791 | 0.692
x2 = 0.6386 | 851.53 | 842.17 | 832.77 | 823.29 | 1.011 | 0.866 | 0.746 | 0.648
x2 = 0.7332 | 828.73 | 819.29 | 809.79 | 800.2 | 0.953 | 0.813 | 0.699 | 0.608
x2 = 0.8249 | 807.41 | 797.92 | 788.36 | 778.69 | 0.895 | 0.76 | 0.655 | 0.573
x2 = 0.9138 | 787.37 | 777.85 | 768.22 | 758.49 | 0.843 | 0.72 | 0.623 | 0.544
